Assay results: PubChem BioAssay AID328 (DTP/NCI, 2004)
Where “and” joins values, the source holds several entries; their conditions need not be identical. Equal values may be shown once. Toxic doses and inconclusive results are not listed. How the source made its calls: active means survival T/C of 150% or more; inactive means T/C below 125% in these data.

Test system: BDF1 mice, P388 leukemia ip, median survival T/C
Assay: NCI In Vivo Anticancer Drug Screen. Data for tumor model P388 Leukemia (intraperitoneal) in B6D2F1 (BDF1) mice
Conditions: endpoint: median survival time, higher = longer survival
Summary of the method: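 Reported as T/C, where T is the survival measurement in dosed animals and C the same measurement in vehicle controls.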

[1] = dose: 100.0 mg/kg/injection, schedule: Q01DX009 (ip), vehicle: Klucel (hydroxypropylcellulose) (HPC)
[2] = dose: 200.0 mg/kg/injection, schedule: Q01DX009 (ip), vehicle: Klucel (hydroxypropylcellulose) (HPC)
[3] = dose: 50.0 mg/kg/injection, schedule: Q01DX009 (ip), vehicle: saline
[4] = dose: 100.0 mg/kg/injection, schedule: Q01DX009 (ip), vehicle: saline
[5] = dose: 50.0 mg/kg/injection, schedule: Q01DX009 (ip), vehicle: saline with Tween-80
[6] = dose: 100.0 mg/kg/injection, schedule: Q01DX009 (ip), vehicle: saline with Tween-80
[7] = dose: 200.0 mg/kg/injection, schedule: Q01DX009 (ip), vehicle: saline with Tween-80
[8] = dose: 400.0 mg/kg/injection, schedule: Q01DX009 (ip), vehicle: saline with Tween-80
[9] = dose: 400.0 mg/kg/injection, schedule: Q01DX009 (ip), vehicle: Klucel (hydroxypropylcellulose) (HPC)

Measured: T/C

CC1=CCCC(C)(C)C1/C=C/C(C)=C/C(=O)O (centres undefined)
inactive: dose: 3.13 mg/kg/injection, schedule: Q01DX009 (ip), vehicle: Klucel (hydroxypropylcellulose) (HPC) 111 % of control | dose: 6.25 mg/kg/injection, schedule: Q01DX009 (ip), vehicle: Klucel (hydroxypropylcellulose) (HPC) 103 % of control | dose: 12.5 mg/kg/injection, schedule: Q01DX009 (ip), vehicle: Klucel (hydroxypropylcellulose) (HPC) 99 % of control | dose: 25.0 mg/kg/injection, schedule: Q01DX009 (ip), vehicle: Klucel (hydroxypropylcellulose) (HPC) 99 % of control | [1] 104 % of control | [2] 110 % of control

CC1CC=CCC1COC(OCC1CC=CCC1C)C1CC=CCC1C (centres undefined)
inactive: dose: 100.0 mg/kg/injection, schedule: Q04DX003 (ip), vehicle: other 104 % of control | dose: 200.0 mg/kg/injection, schedule: Q04DX003 (ip), vehicle: other 114 % of control | dose: 400.0 mg/kg/injection, schedule: Q04DX003 (ip), vehicle: other 119 % of control

ICCCCCCCCCC[n+]1ccc2ccccc2c1
inactive: dose: 12.5 mg/kg/injection, schedule: Q01DX005 (ip), vehicle: saline with Tween-80 120 % of control | dose: 25.0 mg/kg/injection, schedule: Q01DX005 (ip), vehicle: saline with Tween-80 122 % of control

C/C(=C\Cl)CO
inactive: dose: 56.25 mg/kg/injection, schedule: Q01DX001 (ip), vehicle: saline 95 % of control | dose: 56.25 mg/kg/injection, schedule: Q04DX003 (ip), vehicle: saline 100 % of control | dose: 112.5 mg/kg/injection, schedule: Q01DX001 (ip), vehicle: saline 100 % of control | dose: 112.5 mg/kg/injection, schedule: Q04DX003 (ip), vehicle: saline 95 % of control | dose: 150.0 mg/kg/injection, schedule: Q01DX009 (ip), vehicle: alcohol 95 % of control | dose: 225.0 mg/kg/injection, schedule: Q01DX001 (ip), vehicle: saline 90 % of control | dose: 225.0 mg/kg/injection, schedule: Q01DX009 (ip), vehicle: alcohol 100 % of control | dose: 225.0 mg/kg/injection, schedule: Q04DX003 (ip), vehicle: saline 90 % of control

CC(=O)C1(O)Cc2c(O)c3c(c(O)c2C(O)C1)C(=O)c1c(OC(C)C)cccc1C3=O (centres undefined)
inactive: dose: 3.13 mg/kg/injection, schedule: Q04DX003 (ip), vehicle: other 108 % of control | dose: 3.13 mg/kg/injection, schedule: Q04DX009 (ip), vehicle: other 101 % of control | dose: 6.25 mg/kg/injection, schedule: Q04DX003 (ip), vehicle: other 105 % of control | dose: 6.25 mg/kg/injection, schedule: Q04DX009 (ip), vehicle: other 92 % of control | dose: 12.5 mg/kg/injection, schedule: Q04DX003 (ip), vehicle: other 100 % of control | dose: 12.5 mg/kg/injection, schedule: Q04DX009 (ip), vehicle: other 110 % of control | dose: 25.0 mg/kg/injection, schedule: Q04DX003 (ip), vehicle: other 105 % of control | dose: 25.0 mg/kg/injection, schedule: Q04DX009 (ip), vehicle: other 110 % of control | dose: 50.0 mg/kg/injection, schedule: Q04DX003 (ip), vehicle: other 101 % of control | dose: 50.0 mg/kg/injection, schedule: Q04DX009 (ip), vehicle: other 99 % of control

COc1ccc(C(C)c2ccccc2)cc1C(C)c1ccccc1 (centres undefined)
inactive: dose: 100.0 mg/kg/injection, schedule: Q04DX003 (ip), vehicle: saline with Tween-80 109 % of control | dose: 200.0 mg/kg/injection, schedule: Q04DX003 (ip), vehicle: saline with Tween-80 90 % of control | dose: 400.0 mg/kg/injection, schedule: Q04DX003 (ip), vehicle: saline with Tween-80 100 % of control

COc1ccc(CCN2C(=O)CSC2=S)cc1OC
inactive: dose: 100.0 mg/kg/injection, schedule: Q01DX001 (ip), vehicle: Klucel (hydroxypropylcellulose) (HPC) 90 % of control | dose: 200.0 mg/kg/injection, schedule: Q01DX001 (ip), vehicle: Klucel (hydroxypropylcellulose) (HPC) 100 % of control | dose: 400.0 mg/kg/injection, schedule: Q01DX001 (ip), vehicle: Klucel (hydroxypropylcellulose) (HPC) 90 % of control

C=CCN1C(=O)CNC1=O
inactive: [3] 93 % of control | [4] 100 % of control | dose: 200.0 mg/kg/injection, schedule: Q01DX009 (ip), vehicle: saline 101 % of control

COc1ccccc1C(C#N)N1CCCN(C(C#N)c2ccccc2OC)C1c1cc(Cl)cc(Cl)c1O (centres undefined)
inactive: [5] 95 % of control | [6] 98 % of control | [7] 98 % of control | [8] 91 % of control

CC1OC(OC2C(O)CC(OC3C(O)CC(OC4CCC5(C)C(CCC6C5CCC5(C)C(C7=CC(=O)OC7)CCC65O)C4)OC3C)OC2C)CC(O)C1O (centres undefined)
inactive: dose: 0.63 mg/kg/injection, schedule: Q01DX010 (ip), vehicle: saline 113 % of control | dose: 1.25 mg/kg/injection, schedule: Q01DX010 (ip), vehicle: saline 100 % of control | dose: 2.5 mg/kg/injection, schedule: Q01DX010 (ip), vehicle: saline 118 % of control | dose: 5.0 mg/kg/injection, schedule: Q01DX010 (ip), vehicle: saline 100 % of control

COC1=CC(=O)CC(C)C12Oc1c(Cl)c(OC)cc(OC)c1C2=O (centres undefined)
inactive: [1] 100 % of control | [6] 100 % of control | [2] 109 % of control | [7] 100 % of control | [9] 100 % of control | [8] 109 % of control

O=C1c2ccccc2C(=O)N1N1C(=O)c2ccccc2C1=O
inactive: [6] 100 % of control | [7] 90 % of control | [8] 100 % of control

O=C(NCCBr)Nc1ccccc1C(F)(F)F
inactive: dose: 100.0 mg/kg/injection, schedule: Q04DX003 (ip), vehicle: Klucel (hydroxypropylcellulose) (HPC) 95 % of control | dose: 200.0 mg/kg/injection, schedule: Q04DX003 (ip), vehicle: Klucel (hydroxypropylcellulose) (HPC) 109 % of control | dose: 400.0 mg/kg/injection, schedule: Q04DX003 (ip), vehicle: Klucel (hydroxypropylcellulose) (HPC) 109 % of control

CCOC(=O)Nc1cncc(NC(=O)OCC)n1
inactive: dose: 6.25 mg/kg/injection, schedule: Q04DX003 (ip), vehicle: water 106 % of control | dose: 12.5 mg/kg/injection, schedule: Q04DX003 (ip), vehicle: water 100 % of control | dose: 25.0 mg/kg/injection, schedule: Q01DX009 (ip), vehicle: water 100 % of control | dose: 25.0 mg/kg/injection, schedule: Q04DX003 (ip), vehicle: water 105 % of control | dose: 50.0 mg/kg/injection, schedule: Q01DX009 (ip), vehicle: water 101 % of control | dose: 50.0 mg/kg/injection, schedule: Q04DX003 (ip), vehicle: water 101 % of control | dose: 100.0 mg/kg/injection, schedule: Q01DX009 (ip), vehicle: water 93 % of control | dose: 100.0 mg/kg/injection, schedule: Q04DX003 (ip), vehicle: water 100 % of control | dose: 200.0 mg/kg/injection, schedule: Q01DX009 (ip), vehicle: water 95 % of control | dose: 400.0 mg/kg/injection, schedule: Q01DX009 (ip), vehicle: water 87 % of control

O=C(COCc1ccccc1)OCc1ccccc1
inactive: dose: 100.0 mg/kg/injection, schedule: Q04DX003 (ip), vehicle: saline 109 % of control | dose: 200.0 mg/kg/injection, schedule: Q04DX003 (ip), vehicle: saline 104 % of control | dose: 400.0 mg/kg/injection, schedule: Q04DX003 (ip), vehicle: saline 113 % of control

O=[N+]([O-])c1cc2no[n+]([O-])c2cc1N1CCN(c2cc3c(cc2[N+](=O)[O-])no[n+]3[O-])CC1
inactive: dose: 15.0 mg/kg/injection, schedule: Q01DX009 (ip), vehicle: saline with Tween-80 97 % of control | dose: 30.0 mg/kg/injection, schedule: Q01DX009 (ip), vehicle: saline with Tween-80 98 % of control | dose: 60.0 mg/kg/injection, schedule: Q01DX009 (ip), vehicle: saline with Tween-80 97 % of control

CCCN(CCC)CC(O)c1cc2cc(C(F)(F)F)cc(C(F)(F)F)c2c2ccccc12 (centres undefined)
inactive: [5] 107 % of control | [6] 114 % of control

CN(C)c1ccc(/C=C\C(=O)c2ccccc2)cc1
inactive: [1] 100 % of control | [2] 110 % of control | [9] 120 % of control

CS(=O)(=O)OCCC#N
inactive: dose: 25.0 mg/kg/injection, schedule: Q01DX009 (ip), vehicle: saline 113 % of control | [3] 91 % of control and 104 % of control | [4] 113 % of control | dose: 100.0 mg/kg/injection, schedule: Q04DX003 (ip), vehicle: alcohol 110 % of control | dose: 150.0 mg/kg/injection, schedule: Q01DX009 (ip), vehicle: saline 95 % of control
